{
  "source": "patent US7655374B2",
  "about": "“Fixing liquid, toner fixing method and apparatus, and image forming method and apparatus” (Ricoh Company, Ltd., priority 2005, dated 2010)",
  "origin": "cited, not measured here",
  "data": [
    {"conditions": "acute oral toxicity; species not given", "units": {"LD50": "mg/kg"}, "values": [
      {"compound": "CCCCOC(=O)CCCCCCCCC(=O)OCCCC", "note": "[dibutyl sebacate]", "LD50": 14900},
      {"compound": "CCCCCCCCCCCC(=O)OCC", "note": "[ethyl laurate]", "LD50": 3000},
      {"compound": "diethoxyethyl sebacate", "LD50": "> 5000"},
      {"compound": "CC(C)COC(=O)CCCCC(=O)OCC(C)C", "note": "[diisobutyl adipate]", "LD50": 12300},
      {"compound": "CCCCCCCCCCCC", "note": "[n-dodecane]", "LD50": "> 5000"}
    ]}
  ]
}
